Measured values published in article PMC9695592, “Phenotypic Evaluation of Nucleoside Analogues against Trypanosoma cruzi Infection: In Vitro and In Vivo Approaches” (Molecules, 2022).
“Also recorded” adds a separate entry of the source.

How the values were obtained:
[1] = test system: intracellular forms of T. cruzi (Tulahuen strain); assay: Activity against intracellular forms of T. cruzi (Tulahuen-β gal strain) in L929 cultures, CPRG readout; format: cell-based; settings: Trypanosoma cruzi, 168 h; Tulahuen strain in L929, seven days of compound incubation; 95% confidence interval in brackets
Source text: (§1) L929 cell lines were used to evaluate the effect of the nucleoside derivatives on the cellular viability of mammalian host cells and to assess their activity against intracellular forms of T. cruzi (Tulahuen strain expressing E. coli β-galactosidase gene, DTU VI) as reported. 2D and 3D culture systems of rat cardiomyoblast cell lines (H9C2(2-1)) were used to evaluate cardiotoxicity and to test the derivatives’ activity on intracellular forms (Y strain, DTU II). In all assays, the cell cultures were maintained at 37 °C under an atmosphere of 5% CO2.
(§2) Bloodstream trypomastigotes of the Y strain (DTU II) were obtained by cardiac puncture of infected Swiss Webster mice on the parasitemia peak to perform drug sensitivity assays. Trypomastigote forms of the Tulahuen-β gal strain were collected from the supernatant of previously infected L929 cell cultures (host/parasite cell ratio 10:1). The intracellular forms T. cruzi were studied by the infection of L929 and H9C2 (2D and 3D) cell cultures infected for 48 and 24 h with trypomastigotes of Tulahuen-β gal and Y strains, respectively. The Leishmania mexicana-Cas9 T7 strain (LmexCas9) was derived from L. mexicana WT promastigotes by expression of the Streptococcus pyogenes Cas9 nuclease gene ‘Cas9′ and maintained on 32 μg/mL hygromycin [51]. This strain and the derived strains Cas9^ΔNT1 and Cas9^ΔNT1+TcrNT2 were cultured in HOMEM medium supplemented with 10% of FBS and 1% Penicillin-Streptomycin antibiotic in unvented flasks at 25 °C [52]. The Cas9^ΔNT1 strain is identical to Cas9 except that the LmexNT1.1/NT1.2 locus encoding the L. mexicana adenosine/ pyrimidine transporters was excised using Cas9 [17, 40]. Cas9^ΔNT1+TcrNT2 is the further modification of that strain by the expression of the T. cruzi nucleoside transporter 2 (TcrNT2) gene in it, using the vector pNUS-HcN [53]. Appropriate antibiotics were added for the selection and maintenance of transfectants.
In an initial step, nucleoside derivatives were assayed against intracellular forms of Tulahuen-β gal strain in L929 cell lines. Assays were performed in sterile 96-well microtiter plates with 4 × 10^3 cells/well and 4 × 10^4 parasites/well (host/parasite cell ratio 1:10). After the establishment of infection (48 h), increasing concentrations (up to 30 µM) of the compounds were added, and the cultures maintained at 37 °C for seven days. Untreated-infected controls represented 100% growth. Parasite burden was analyzed by adding the substrate CPRG (chlorophenol red ß-D-galactopyranoside) followed by measurements (spectrophotometrically) at 570 nm. The results were expressed as percentage of reduction in parasite growth compared to untreated cells, and EC50 values were calculated. Bz was used as a positive control. To investigate the effect of the compounds against intracellular forms of the Y strain, rat cardiomyoblasts (2D cultures of H9C2) were seeded in 24-well plates and, after 24 h of platting, were infected with bloodstream trypomastigotes (20 parasites per host cell). After 24 h of interaction, the infected cultures were rinsed to remove non-internalized parasites and incubated with 10 µM of the tested compounds. After seven days of treatment, the cultures were fixed, stained with Giemsa, and 200 cells were quantified by light microscopy. The results were expressed as % of reduction in parasite burden. The data results from two independent experiments performed in at least duplicate were obtained.

[2] = test system: intracellular forms of T. cruzi (Y strain) in 3D H9C2; assay: Activity against T. cruzi (Y strain) infection of H9C2 spheroids (3D); format: cell-based, Trypanosoma cruzi; settings: 10 µM, seven days of incubation, 95% confidence interval in brackets
Source text: as §1, §2
3D cultures of H9C2 cells were obtained as described, and 24 h after plating, the spheroids were infected (or not, control) with bloodstream trypomastigotes of T. cruzi (strain Y), using 20 parasites per host cell. After 24 h, infected spheroids were incubated with 10 µM of the tested compounds for seven days, and then the spheroids were transferred one by one to an Eppendorf tube, with the aid of a pestle they were mechanically macerated following an established protocol with minor adaptations. The parasite load was quantified by light microscopy and qPCR [54], and the results were expressed as % of parasite death. The data results from two independent experiments performed in at least duplicate.

[3] = test system: promastigotes of Lmex^ΔNT1+TcrNT2; assay: Resazurin-based assay on Cas9^ΔNT1+TcrNT2 promastigotes; format: cell-based, Leishmania mexicana; settings: for EC50: Leishmania mexicana, read-out: Lmex^ΔNT1+TcrNT2 EC50 (μM)
Description: as §2
The EC50 values for nucleoside analogues against Leishmania mexicana promastigotes of the Cas9, Cas9^ΔNT1 and Cas9^ΔNT1+TcrNT2 strains used a resazurin-based assay, as described. Briefly, the assays were performed in standard HOMEM medium and culture conditions, in white opaque 96-well plates. For each test compound (stored as a 40 mM stock solution in 100% DMSO at −20 °C), a doubling dilution was performed over 2 rows of the plate, keeping the last well free as no-drug control with HOMEM only (23 doubling dilutions; highest concentration 100 µM). To each well, 100 µL of HOMEM containing 2 × 10^5 cells of the appropriate L. mexicana line was added, and the plates incubated for 72 h at 25 °C, followed by the addition of 20 µL of resazurin solution and further incubation for 48 h. Fluorescence was read on a FLUOstar OPTIMA plate reader (BMG Labtech, Germany), at an excitation wavelength of 544 nm and an emission wavelength of 620 nm. The EC50 values were determined by the GraphPad Prism 8.0 software using an equation for a sigmoid curve with variable slope. Pentamidine was used as positive control, and every experiment was independently performed at least 3 times independently.

[4] = test system: T. cruzi (Tulahuen strain) in L929; assay: Washout assay in T. cruzi-infected L929 cultures (Tulahuen strain); format: cell-based, Trypanosoma cruzi; settings: 10 μM for seven days, then seven days drug-free medium; light microscopy
Description: To explore in vitro parasitic exhaustion, T. cruzi-infected L929 cultures were incubated for seven days with the compounds at 10 μM. Then, fresh drug-free medium was added and replaced every 48 h. After seven days of incubation, the number of released parasites into the supernatant was quantified by light microscopy.
T. cruzi-infected L929 cultures (using the Tulahuen-β gal strain) were exposed or not to 10 µM of each nucleoside derivative, and the RPMI culture medium (containing the tested compounds) replaced every 48 h. After seven days of incubation, the cultures were rinsed with 0.1 M phosphate buffered saline (PBS), and drug-free culture medium was added for another seven days of incubation, replacing the drug-free medium every 48 h. Parasites released into the supernatant of the cell cultures were quantified using light microscopy, and the parasite burden into the infected cultures was analyzed by adding the substrate CPRG (chlorophenol red ß-D-galactopyranoside) followed by spectrophotometric measurements at 570 nm. The results were expressed as percentage of reduction in parasite growth compared to untreated cells, and EC50 values were calculated. Bz was used as a positive control. The data results from two independent experiments done in at least duplicate.

[5] = test system: intracellular forms of T. cruzi; design: method as in PMID 20428688; settings: read-out: EC90 value of Bz against the intracellular forms of T. cruzi; cited from earlier work

Row | SMILES | EC50 [1] | EC90 [1] | % of Death Rate by Light Microscopy Quantification 3D [2] | % of Death Rate by qPCR 3D [2] | EC50 [3] | parasites released into the supernatant after washout [4] | Lmex^ΔNT1+TcrNT2 Sensitization (fold) ([3]; ratio of the EC50 values of the Cas9^ΔNT1 and Cas9^ΔNT1+TcrNT2 strains) | EC90 [5]
1 | Nc1ncnc2c1c(-c1ccc(F)c(F)c1)cn2[C@@H]1O[C@H](CO)[C@@H](O)[C@H]1O [FH11706, 7-(3,4-Difluorophenyl)tubercidin] | 1.11 µM | > 30 µM | 91.6 (86.2 to 97) % | 85 (79 to 91) % | – | – | – | –
2 | Nc1ncnc2c1c(-c1ccc(Cl)c(F)c1)cn2[C@@H]1O[C@H](CO)[C@@H](O)[C@H]1O [FH10714, 7-(3-fluoro,4-chlorophenyl)tubercidin] | 0.47 µM | 6.19 µM | 93.5 (93.46 to 93.54) % | 67 (38 to 96) % | > 100 µM | sterilized the infected cultures; also recorded: cleared the parasitism; also recorded: eliminated the parasitism | – | –
3 | Nc1ncnc2c1c(-c1ccc(Cl)c(Cl)c1)cn2[C@@H]1O[C@H](CO)C[C@H]1O [FH8513, 7-(3,4-dichlorophenyl)-3′-deoxytubercidin] | 0.2 µM | 1.61 µM | 83.8 (67.5 to 100) % | 94 (90 to 98) % | 31.1 ± 0.5 µM | – | 3.2 fold | –
4 | O=C(Cn1ccnc1[N+](=O)[O-])NCc1ccccc1 [Bz, Benznidazole, reference compound] | 1.97 µM | 5.54 µM | 98.4 (98.1 to 98.7) % | 100% | – | – | – | 10 µM
